From patent US20080286213A1, “Pharmaceuticals for treating or preventing oral diseases” (HAWLEY & HAZEL (BVI) COMPANY LIMITED, priority 2007, published 2008)

Columns and labels:
[1] = tested on: IL-1β (interleukin); test: LUMINEX liquid-phase chip analysis of KB cell supernatant, IL-1β; format: cell-based, human; conditions: KB cells; the larger the value, the stronger the anti-inflammatory ability; concentration not given
Description: (§1) Anti-inflammatory activity was assessed using the KB cell (the epidermis cancer cell in human oral cavity). During the experiment, the KB cell inoculated in the cultivating plate was treated with or without positive control or compound morusin. After the treatment, the supernatant of the cultivating medium was collected and stored in −80° C. refrigerator. Inflammation was assessed by measuring several inflammation markers: Prostaglandin E2 (PGE2) in the supernatant was detected by Enzyme-linked immunsorbent assay, and LUMINEX™ multifunctional liquid-phase chip analysis system was used for the detection of granulocyte […] colony stimulating factor (GM-CSF), tumor necrosis factor-alpha (TNF-α), and interleukins 1-beta and 6 (IL-1β and IL-6).
(§2) LUMINEX™ multifunctional liquid-phase chip analyses of GM-CSF, TNF-α, IL-1 and IL-6: The 96-well plate was enclosed with enclosing liquid for 30 minutes. Fluorescent microspheres were added into the 96-well plate after dilution. The standard and the samples to be measured were added, and incubated overnight at 4° C. The next day, the supernatant was discarded and 50 μL GM-CSF, TNF-α, IL-1β and IL-6 antibodies were added to each well. After being rinsed for 4 times, the 96-well plate was placed in a shaking table, which was in ambient temperature, to keep the plate away from light for 1 hour. […]

[2] = tested on: Actinomyces viscosus (A. v) ATCC 27044; test: MIC by micro-dilution method; format: cell-based; conditions: no unit in table; dilution series 250-0.12 mg/L, ceiling 250 ppm; 37°C, 18-24 h
Description: (§3) A single colony was picked from the Trypticase Digested Soybean peptone agar blood plate (TSA5B) of ordinarily stored bacteria species and used to inoculate corresponding broth culture medium, which was cultivated in a microaerobic environment (P.g needs anaerobic cultivation) with 95% air, 5% CO2 at 37.0° C.±1.0° C., wherein S.m was cultivated for 18-24 h, and the species were cultivated for 40-48 h. Then corresponding broth cultivate medium was used to adjust the turbidity of the bacteria suspension to 0.5^# McFarland standard, equivalent to 1.0×10^8 CFU/mL.
(§4) The operating steps were:
(§5) a. Preparation of the stock solution of antibacterial pharmaceutical: 1% stock solution of various antibacterial pharmaceuticals was prepared with 100% pure ethanol as solvent. The prepared stock solution was filtered to eliminate bacteria, and was distributed into small portions to be used.
(§6) b. Range of measured concentration: the present experiment used 250 ppm as the ceiling measured concentration of the anti-bacterial pharmaceutical.
(§7) c. Measuring method: micro-dilution method.
(§8) First, 100 μL broth medium was added to each well of the 96-well plate, then 100 μL sterile anti-bacteria pharmaceutical solution, which was diluted 10-fold (1000 mg/L), was added to each hole of the first column. Then each well of the first column was mixed repeatedly for 7-8 times using a multi-channel micropipet, and 100 μL sample was transferred to the second column after sufficiently mixing the pharmaceutical with TSB. After being similarly mixed for 7-8 times, 100 μL sample was transferred to the third column, and likewise to the wells of the remaining columns. Thus the concentration of the pharmaceutical was gradiently diluted 2-fold between the columns, from 500 mg/L in the first column to 0.24 mg/L in the last column (the 12th column).
(§9) The bacteria to be tested and standard bacteria were prepared as above. Both bacteria solutions were diluted with broth medium to a bacteria content of about 10^6 CFU/mL. Then 100 μL was inoculated into each well of the 96-well plate containing the anti-bacterial pharmaceutical. Thus the final diluted concentrations of the anti-bacteria pharmaceutical in each column were 250, 125, 62.5 . . . 0.12 mg/L, and the final inoculation quantity is about […] in each well. The 96-well plate was placed on a microshaker and shaken for 1 min to mix the solutions in each well. The microwell plate was covered and sealed with adhesive paper to reduce the evaporation during the incubation process. The plate was placed in a humid box, cultivated in microaerobic environment with 95% air, 5% CO2 (or in anaerobic environment with 90% N2, 5% H2, 5% CO2) at 37.0° C.±1.0° C. for 18-24 h. The 96-well plate is placed under an enzyme-labeling instrument. The growth characteristics of the tested bacteria were compared with the standard bacteria to determine the MIC, which was the lowest anti-bacterial pharmaceutical concentration contained in the well without bacterial growth.

[3] = tested on: Streptococcus sanguis (S. sa) ATCC 10556; test: MIC by micro-dilution method; format: cell-based; conditions: no unit in table; dilution series 250-0.12 mg/L, ceiling 250 ppm; 37°C, 18-24 h
Description: as §3, §4, §5, §6, §7, §8, §9

[4] = tested on: Actinobacillus actinomycetemcomitans (A. a) ATCC 43717; test: MIC by micro-dilution method; format: cell-based; conditions: no unit in table; dilution series 250-0.12 mg/L, ceiling 250 ppm; 37°C, 18-24 h
Description: as §3, §4, §5, §6, §7, §8, §9

[5] = tested on: Porphyromonas gingivalis (P. g) ATCC 33277; test: MIC by micro-dilution method; format: cell-based; conditions: no unit in table; dilution series 250-0.12 mg/L, ceiling 250 ppm; anaerobic, 37°C, 18-24 h
Description: as §3, §4, §5, §6, §7, §8, §9

[6] = tested on: Streptococcus mutans (S. m) ATCC 25175; test: MIC by micro-dilution method; format: cell-based; conditions: no unit in table; dilution series 250-0.12 mg/L, ceiling 250 ppm; 37°C, 18-24 h
Description: as §3, §4, §5, §6, §7, §8, §9

[7] = tested on: Fusobacterium nucleatum subsp. Polymorphum (F. n) ATCC 10953; test: MIC by micro-dilution method; format: cell-based; conditions: no unit in table; dilution series 250-0.12 mg/L, ceiling 250 ppm; 37°C, 18-24 h
Description: as §3, §4, §5, §6, §7, §8, §9

[8] = tested on: Actinomyces naeslundii (A. n) ATCC 12104; test: MIC by micro-dilution method; format: cell-based; conditions: no unit in table; dilution series 250-0.12 mg/L, ceiling 250 ppm; 37°C, 18-24 h
Description: as §3, §4, §5, §6, §7, §8, §9

[9] = tested on: GM-CSF; test: LUMINEX liquid-phase chip analysis of KB cell supernatant, GM-CSF; format: cell-based, human; conditions: KB cells; the larger the value, the stronger the anti-inflammatory ability; concentration not given
Description: as §1, §2

[10] = tested on: IL-6 (interleukin); test: LUMINEX liquid-phase chip analysis of KB cell supernatant, IL-6; format: cell-based, human; conditions: KB cells; the larger the value, the stronger the anti-inflammatory ability; concentration not given
Description: as §1, §2

[11] = tested on: Prostaglandin E2 (PGE2); test: PGE2 enzyme-linked immunosorbent assay in KB cell supernatant; format: cell-based, human; conditions: oral KB cell, PGE2 in supernatant by ELISA
Description: as §1

[12] = tested on: TNF-α (Tumor Necrosis Factor); test: LUMINEX liquid-phase chip analysis of KB cell supernatant, TNF-α; format: cell-based, human; conditions: KB cells; the larger the value, the stronger the anti-inflammatory ability; concentration not given
Description: as §1, §2

SMILES | anti-inflammatory effect, IL-1β (interleukin) [1] | MIC, A. v ATCC 27044 [2] | MIC, S. sa ATCC 10556 [3] | MIC, A. a ATCC 43717 [4] | MIC, P. g ATCC 33277 [5] | MIC, S. m ATCC 25175 [6] | MIC, F. n ATCC 10953 [7] | MIC, A. n ATCC 12104 [8] | anti-inflammatory effect, GM-CSF [9] | anti-inflammatory effect, IL-6 (interleukin) [10] | 50% inhibitory concentration (Prostaglandin E2 result) [11] | anti-inflammatory effect, TNF-α (Tumor Necrosis Factor) [12]
CC(C)=CCc1c(-c2ccc(O)cc2O)oc2c3c(cc(O)c2c1=O)OC(C)(C)C=C3 [Morusin, 2-(2,4-dihydroxyphenyl)-5-hydroxy-8,8-dimethyl-3-(3-methyl-2-butenyl)-4H,8H-Benzo(1,2-b:3,4-b′)dipyran-4-one] | 20% | 2.4 | 3.9 | 2.4 | 1.9 | 3.9 | 15.6 | 1.9 | 9% | 49% | 0.02 ppm | 91%
Oc1cc(Cl)ccc1Oc1ccc(Cl)cc1Cl [Triclosan] | 7% | 3.9 | 7.8 | 1.95 | 7.8 | 3.9 | 7.8 | 3.9 | 5% | 31% | ~0.02 ppm | 81%
